Measured values: patent EP4603105A1, “PHARMACEUTICAL COMPOSITION CONTAINING CYCLIC COMPOUND HAVING SELECTIVE KRAS INHIBITORY EFFECT AGAINST HRAS AND NRAS” (CHUGAI SEIYAKU KABUSHIKI KAISHA, priority 2022, dated 2024)
Where a SMILES comes first, the peptide text is derived from it. Bridges are numbered along the chain shown (N, C = ends). [ ]: non-standard residue; d: D form. The star is where a group is joined. hPhe(3-Cl-4-CF3) = N[C@@H](CCc1ccc(C(F)(F)F)c(Cl)c1)C(=O)O; NPrPhe(4-CF3) = CCCN[C@@H](Cc1ccc(C(F)(F)F)cc1)C(=O)O; NMeGly(cPent) = CN[C@H](C(=O)O)C1CCCC1; Pro(4,4-F2) = O=C(O)[C@@H]1CC(F)(F)CN1; Hyp = O=C(O)[C@@H]1C[C@@H](O)CN1; NMeD = CN[C@@H](CC(=O)O)C(=O)O; NMeL = CN[C@@H](CC(C)C)C(=O)O; N(Me)CH2CH2OMe = COCCN(C)*; Morpholide = C1CN(*)CCO1; NMeA = CN[C@@H](C)C(=O)O; Ac5c = NC1(C(=O)O)CCCC1; Aze = O=C(O)[C@@H]1CCN1; Ac4c = NC1(C(=O)O)CCC1; Sar = CNCC(=O)O

Assays:
[1] = target: GDP-bound NRAS wild-type protein (Homo sapiens, UniProt P01111); test: Binding to NRAS by surface plasmon resonance (SPR), KD and KD ratio to KRAS
Sequence of GDP-bound NRAS wild-type protein (P01111 whole entry): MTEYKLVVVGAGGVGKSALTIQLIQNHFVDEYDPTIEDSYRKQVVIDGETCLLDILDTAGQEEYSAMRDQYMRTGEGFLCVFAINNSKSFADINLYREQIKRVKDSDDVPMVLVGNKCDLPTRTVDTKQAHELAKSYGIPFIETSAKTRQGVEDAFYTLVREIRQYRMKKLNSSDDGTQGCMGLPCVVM
In short: (§1)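 Recombinant RAS proteins bearing a biotinylated Avi tag and loaded with GDP served as the captured ligand, recaptured fresh every cycle. Binding responses were referenced to an uncoated surface and a buffer-only blank cycle. Dissociation constants were obtained by 1:1 model fitting at 30°C.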

[2] = target: HRAS wild-type protein (Homo sapiens, UniProt P01112); test: Binding to HRAS by surface plasmon resonance (SPR), KD and KD ratio to KRAS
Sequence of HRAS wild-type protein (P01112 whole entry): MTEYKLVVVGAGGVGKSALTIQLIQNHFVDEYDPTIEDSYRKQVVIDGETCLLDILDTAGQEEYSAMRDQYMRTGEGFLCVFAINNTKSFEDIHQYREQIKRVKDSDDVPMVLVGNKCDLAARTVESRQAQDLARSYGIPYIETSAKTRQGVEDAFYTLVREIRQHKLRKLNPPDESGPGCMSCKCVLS
In short: as §1

[3] = tested on: human lung cancer strain NCI-H441; type: cell-based
In short: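 Signal came from […] measured per well once the reagent was added. Beforehand, cells were cultured at 37°C and 5% carbon dioxide on a compound series serially diluted in dimethyl sulfoxide.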

[4] = ratio of KD for GDP-bound NRAS wild-type protein to KD for KRAS
[5] = ratio of KD for HRAS wild-type protein to KD for KRAS
[6] = ratio of the KD value with respect to GDP-bound NRAS wild-type protein to the KD value with respect to KRAS
[7] = ratio of the KD value with respect to HRAS wild-type protein to the KD value with respect to KRAS

Row | Structure (SMILES) | NRAS /KRAS [1, 4] | HRAS /KRAS [2, 5] | IC50 [3] [nM] | NRAS /KRAS [1, 6] | HRAS /KRAS [2, 7]
1 | CCCN1C(=O)[C@@H]2CCN2C(=O)[C@H](C)N(C)C(=O)[C@H]([C@@H](C)CC)NC(=O)[C@H](CC(C)C)N(C)C(=O)C[C@@H](C(=O)N(C)C)NC(=O)[C@H](C2CCCC2)N(C)C(=O)C2(CCCC2)NC(=O)[C@@H]2C[C@@H](OCC)CN2C(=O)[C@H](CCc2ccc(C(F)(F)F)c(Cl)c2)NC(=O)CN(C)C(=O)[C@@H]1Cc1ccc(C(F)(F)F)cc1 [PP0383] ([NMeL]I[NMeA][Aze][NPrPhe(4-CF3)][Sar][hPhe(3-Cl-4-CF3)][Hyp](Et)[Ac5c][NMeGly(cPent)]D-NMe2; lactam N-11) | C (A compound having a KD ratio of 0.1 or more and less than 3 is denoted as C) | B (a compound having 3 or more and less than 10 is denoted as B) | 2.6 | – | –
2 | CCCN1C(=O)[C@@H]2CCN2C(=O)[C@H](C)N(C)C(=O)[C@H]([C@@H](C)CC)NC(=O)[C@H](CC(C)C)N(C)C(=O)C[C@@H](C(=O)N(C)C)NC(=O)[C@H](C2CCCC2)N(C)C(=O)C2(CCC2)NC(=O)[C@@H]2C[C@@H](OCC)CN2C(=O)[C@H](CCc2ccc(C(F)(F)F)c(Cl)c2)NC(=O)CN(C)C(=O)[C@@H]1Cc1ccc(C(F)(F)F)cc1 [PP0384] ([NMeL]I[NMeA][Aze][NPrPhe(4-CF3)][Sar][hPhe(3-Cl-4-CF3)][Hyp](Et)[Ac4c][NMeGly(cPent)]D-NMe2; lactam N-11) | C (A compound having a KD ratio of 0.1 or more and less than 3 is denoted as C) | B (a compound having 3 or more and less than 10 is denoted as B) | 7 | – | –
3 | CCCN1C(=O)[C@@H]2CCN2C(=O)CN(C)C(=O)[C@H]([C@@H](C)CC)NC(=O)[C@H](CC(C)C)N(C)C(=O)C[C@@H](C(=O)N(C)C)NC(=O)[C@H](C2CCCC2)N(C)C(=O)C2(CCC2)NC(=O)[C@@H]2CCCN2C(=O)[C@H](CCc2ccc(C(F)(F)F)c(Cl)c2)NC(=O)CN(C)C(=O)[C@@H]1Cc1ccc(C(F)(F)F)cc1 [PP0386] ([NMeL]I[Sar][Aze][NPrPhe(4-CF3)][Sar][hPhe(3-Cl-4-CF3)]P[Ac4c][NMeGly(cPent)]D-NMe2; lactam N-11) | C (A compound having a KD ratio of 0.1 or more and less than 3 is denoted as C) | B (a compound having 3 or more and less than 10 is denoted as B) | 29.6 | – | –
4 | CCCN1C(=O)[C@@H]2CCN2C(=O)CN(C)C(=O)[C@H]([C@@H](C)CC)NC(=O)[C@H](CC(C)C)N(C)C(=O)C[C@@H](C(=O)N(C)C)NC(=O)[C@H](C2CCCC2)N(C)C(=O)C2(CCCC2)NC(=O)[C@@H]2CC(F)(F)CN2C(=O)[C@H](CCc2ccc(C(F)(F)F)c(Cl)c2)NC(=O)CN(C)C(=O)[C@@H]1Cc1ccc(C(F)(F)F)cc1 [PP0387] ([NMeL]I[Sar][Aze][NPrPhe(4-CF3)][Sar][hPhe(3-Cl-4-CF3)][Pro(4,4-F2)][Ac5c][NMeGly(cPent)]D-NMe2; lactam N-11) | – | – | 20 | C (A compound having a KD ratio of 0.1 or more and less than 3 is denoted as C) | B (a compound having 3 or more and less than 10 is denoted as B)
5 | CCCN1C(=O)[C@@H]2CCN2C(=O)CN(C)C(=O)[C@H]([C@@H](C)CC)NC(=O)[C@H](CC(C)C)N(C)C(=O)C[C@@H](C(=O)N(C)C)NC(=O)[C@H](C2CCCC2)N(C)C(=O)C2(CCC2)NC(=O)[C@@H]2CC(F)(F)CN2C(=O)[C@H](CCc2ccc(C(F)(F)F)c(Cl)c2)NC(=O)CN(C)C(=O)[C@@H]1Cc1ccc(C(F)(F)F)cc1 [PP0388] ([NMeL]I[Sar][Aze][NPrPhe(4-CF3)][Sar][hPhe(3-Cl-4-CF3)][Pro(4,4-F2)][Ac4c][NMeGly(cPent)]D-NMe2; lactam N-11) | – | – | 11.6 | C (A compound having a KD ratio of 0.1 or more and less than 3 is denoted as C) | B (a compound having 3 or more and less than 10 is denoted as B)
6 | CCCN1C(=O)[C@@H]2CCN2C(=O)CN(C)C(=O)[C@H]([C@@H](C)CC)NC(=O)[C@H](CC(C)C)N(C)C(=O)C[C@@H](C(=O)N(C)C)NC(=O)[C@H](C2CCCC2)N(C)C(=O)C2(CCCC2)NC(=O)[C@@H]2C[C@@H](OCC)CN2C(=O)[C@H](CCc2ccc(C(F)(F)F)c(Cl)c2)NC(=O)CN(C)C(=O)[C@@H]1Cc1ccc(C(F)(F)F)cc1 [PP0389] ([NMeL]I[Sar][Aze][NPrPhe(4-CF3)][Sar][hPhe(3-Cl-4-CF3)][Hyp](Et)[Ac5c][NMeGly(cPent)]D-NMe2; lactam N-11) | – | – | 3 | C (A compound having a KD ratio of 0.1 or more and less than 3 is denoted as C) | B (a compound having 3 or more and less than 10 is denoted as B)
7 | CCCN1C(=O)[C@@H]2CCN2C(=O)CN(C)C(=O)[C@H]([C@@H](C)CC)NC(=O)[C@H](CC(C)C)N(C)C(=O)C[C@@H](C(=O)N(C)C)NC(=O)[C@H](C2CCCC2)N(C)C(=O)C2(CCC2)NC(=O)[C@@H]2C[C@@H](OCC)CN2C(=O)[C@H](CCc2ccc(C(F)(F)F)c(Cl)c2)NC(=O)CN(C)C(=O)[C@@H]1Cc1ccc(C(F)(F)F)cc1 [PP0390] ([NMeL]I[Sar][Aze][NPrPhe(4-CF3)][Sar][hPhe(3-Cl-4-CF3)][Hyp](Et)[Ac4c][NMeGly(cPent)]D-NMe2; lactam N-11) | – | – | 7.6 | C (A compound having a KD ratio of 0.1 or more and less than 3 is denoted as C) | B (a compound having 3 or more and less than 10 is denoted as B)
8 | CCCN1C(=O)CN(C)C(=O)CN(C)C(=O)[C@H]([C@@H](C)CC)NC(=O)[C@H](CC(C)C)N(C)C(=O)C[C@@H](C(=O)N(C)CCOC)N(C)C(=O)[C@H](C2CCCC2)N(C)C(=O)C2(CCCC2)NC(=O)[C@@H]2CCCN2C(=O)[C@H](CCc2ccc(C(F)(F)F)c(Cl)c2)NC(=O)CN(C)C(=O)[C@@H]1Cc1ccc(C(F)(F)F)cc1 [PP0391] ([NMeL]I[Sar][Sar][NPrPhe(4-CF3)][Sar][hPhe(3-Cl-4-CF3)]P[Ac5c][NMeGly(cPent)][NMeD]-{N(Me)CH2CH2OMe}; lactam N-11) | – | – | 1.1 | B (a compound having 3 or more and less than 10 is denoted as B) | B (a compound having 3 or more and less than 10 is denoted as B)
9 | CCCN1C(=O)CN(C)C(=O)CN(C)C(=O)[C@H]([C@@H](C)CC)NC(=O)[C@H](CC(C)C)N(C)C(=O)C[C@@H](C(=O)N2CCOCC2)N(C)C(=O)[C@H](C2CCCC2)N(C)C(=O)C2(CCC2)NC(=O)[C@@H]2C[C@@H](OCC)CN2C(=O)[C@H](CCc2ccc(C(F)(F)F)c(Cl)c2)NC(=O)CN(C)C(=O)[C@@H]1Cc1ccc(C(F)(F)F)cc1 [PP0392] ([NMeL]I[Sar][Sar][NPrPhe(4-CF3)][Sar][hPhe(3-Cl-4-CF3)][Hyp](Et)[Ac4c][NMeGly(cPent)][NMeD]-Morpholide; lactam N-11) | – | – | 0.9 | B (a compound having 3 or more and less than 10 is denoted as B) | C (A compound having a KD ratio of 0.1 or more and less than 3 is denoted as C)
10 | CCCN1C(=O)CN(C)C(=O)CNC(=O)[C@H]([C@@H](C)CC)NC(=O)[C@H](CC(C)C)N(C)C(=O)C[C@@H](C(=O)N2CCOCC2)N(C)C(=O)[C@H](C2CCCC2)N(C)C(=O)C2(CCC2)NC(=O)[C@@H]2CCCN2C(=O)[C@H](CCc2ccc(C(F)(F)F)c(Cl)c2)NC(=O)CN(C)C(=O)[C@@H]1Cc1ccc(C(F)(F)F)cc1 [PP0393] ([NMeL]IG[Sar][NPrPhe(4-CF3)][Sar][hPhe(3-Cl-4-CF3)]P[Ac4c][NMeGly(cPent)][NMeD]-Morpholide; lactam N-11) | – | – | 2.7 | B (a compound having 3 or more and less than 10 is denoted as B) | B (a compound having 3 or more and less than 10 is denoted as B)
11 | CCCN1C(=O)CN(C)C(=O)CNC(=O)[C@H]([C@@H](C)CC)NC(=O)[C@H](CC(C)C)N(C)C(=O)C[C@@H](C(=O)N2CCOCC2)N(C)C(=O)[C@H](C2CCCC2)N(C)C(=O)C2(CCCC2)NC(=O)[C@@H]2CC(F)(F)CN2C(=O)[C@H](CCc2ccc(C(F)(F)F)c(Cl)c2)NC(=O)CN(C)C(=O)[C@@H]1Cc1ccc(C(F)(F)F)cc1 [PP0394] ([NMeL]IG[Sar][NPrPhe(4-CF3)][Sar][hPhe(3-Cl-4-CF3)][Pro(4,4-F2)][Ac5c][NMeGly(cPent)][NMeD]-Morpholide; lactam N-11) | – | – | 2.6 | C (A compound having a KD ratio of 0.1 or more and less than 3 is denoted as C) | C (A compound having a KD ratio of 0.1 or more and less than 3 is denoted as C)
12 | CCCN1C(=O)CN(C)C(=O)CNC(=O)[C@H]([C@@H](C)CC)NC(=O)[C@H](CC(C)C)N(C)C(=O)C[C@@H](C(=O)N2CCOCC2)N(C)C(=O)[C@H](C2CCCC2)N(C)C(=O)C2(CCC2)NC(=O)[C@@H]2CC(F)(F)CN2C(=O)[C@H](CCc2ccc(C(F)(F)F)c(Cl)c2)NC(=O)CN(C)C(=O)[C@@H]1Cc1ccc(C(F)(F)F)cc1 [PP0395] ([NMeL]IG[Sar][NPrPhe(4-CF3)][Sar][hPhe(3-Cl-4-CF3)][Pro(4,4-F2)][Ac4c][NMeGly(cPent)][NMeD]-Morpholide; lactam N-11) | – | – | 0.8 | B (a compound having 3 or more and less than 10 is denoted as B) | C (A compound having a KD ratio of 0.1 or more and less than 3 is denoted as C)
